Laboratory results as given in patent publication US11964052B2, “Lipid compounds and lipid nanoparticle compositions” (SUZHOU ABOGEN BIOSCIENCES CO., LTD., priority 2021, dated 2024).

Assays:
Type in all cases: physicochemical
[1] = Apparent pKa of LNP formulations, TNS fluorescence assay; conditions: LNP cationic lipid/DSPC/cholesterol/DMG-PEG 50/10/38.5/1.5 mol %, pH 3 to 9
Method: As reported in literature, the apparent pKa of LNP formulations correlates with the delivery efficiency of LNPs for nucleic acids in vivo. The apparent pKa of each formulation was determined using an assay based on fluorescence of 2-(p-toluidino)-6-napthalene sulfonic acid (TNS). LNP formulations comprising of cationic lipid/DSPC/cholesterol/DMG-PEG (50/10/38.5/1.5 mol %) in PBS were prepared as described above. TNS was prepared as a 300 uM stock solution in distilled water. LNP formulations were diluted to 0.1 mg/ml total lipid in 3 mL of buffered solutions containing 50 mM sodium citrate, 50 mM sodium phosphate, 50 mM sodium borate, and 30 mM sodium chloride where the pH ranged from 3 to 9. An aliquot of the TNS solution was added to give a final concentration of 0.1 mg/ml and following vortex mixing fluorescence intensity was measured at room temperature in a Molecular Devices Spectramax iD3 spectrometer using excitation and mission wavelengths of 325 nm and 435 nm. A sigmoidal best fit analysis was applied to the fluorescence data and the pKa value was measured as the pH giving rise to half-maximal fluorescent intensity.

[2] = Encapsulation efficiency of lipid nanoparticles, Quant-it Ribogreen RNA quantification assay; conditions: LNP with mRNA
Method: (§1) Briefly, a cationic lipid provided herein, DSPC, cholesterol, and PEG-lipid were solubilized in ethanol at a molar ratio of 50:10:38.5:1.5, and mRNA were diluted in 10 to 50 mM citrate buffer, pH=4. The LNPs were prepared at a total lipid to mRNA weight ratio of approximately 10:1 to 30:1 by mixing the ethanolic lipid solution with the aqueous mRNA solution at a volume ratio of 1:3 using a microfluidic apparatus, total flow rate ranging from 9-30 mL/min. Ethanol were thereby removed and replaced by DPBS using dialysis. Finally, the lipid nanoparticles were filtered through a 0.2 μm sterile filter.
(§2) Lipid nanoparticle size were determined by dynamic light scattering using a Malvern Zetasizer Nano ZS (Malvern UK) using a 173° backscatter detection mode. The encapsulation efficiency of lipid nanoparticles were determined using a Quant-it Ribogreen RNA quantification assay kit (Thermo Fisher Scientific, UK) according to the manufacturer's instructions.

[3] = Lipid nanoparticle size and polydispersity by dynamic light scattering (Malvern Zetasizer Nano ZS); conditions: LNP of cationic lipid/DSPC/cholesterol/PEG-lipid 50:10:38.5:1.5 with mRNA
Method: as §1, §2

| Apparant Pka [1] | Encapsulation Efficiency [2] [%] | polydispersity [3] | size (nm) [3] [nm] | Structure (SMILES) |
| --- | --- | --- | --- | --- |
| 6.147 | 92.71 | 0.038 | 75.71 | CCCCCCCCC(CCCCCC)CC(=O)OCC(CCCCN(CCN(CCO)CCCCC)C1CCC1)COC(=O)CC(CCCCCC)CCCCCCCC (stereo not drawn) [Compound 110] |
| 6.047 | 95.9 | 0.039 | 103.3 | CCCCCCCCCCCCCCCCCCOCC(CN(CCCCCC(=O)OCCCCCCCCCC)CCN(CCO)C1CCC1)OCCCCCC (stereo not drawn) [Compound 46] |
| 6.204 | 92.59 | 0.011 | 74 | CCCCCCCCC(CCCCCC)CC(=O)OCC(CCCCN(CCN(CCO)CCCC)C1CCC1)COC(=O)CC(CCCCCC)CCCCCCCC (stereo not drawn) [Compound 109] |
| 6.539 | 93.97 | 0.031 | 101.00 | CCCCCCCCC(CCCCCCCC)COC(=O)CCOCC(CN(C)CCN(CCO)C1CCCCCCC1)OCCC(=O)OCC(CCCCCCCC)CCCCCCCC (stereo not drawn) [Compound 74] |
| 6.621 | 92.38 | 0.079 | 84.46 | CCCCCCCCCCC(=O)OCC(CCCCN(CCN(CCO)C1CCC1)C1CCC1)COC(=O)CC(CCCCCC)CCCCCCCC (stereo not drawn) [Compound 82] |
| 6.403 | 91.0 | 0.107 | 53.32 | CCCCCCCCC(CCCCCCCC)CC(=O)OCC(CCCCN(CCO)C1CCC1)COC(=O)CC(CCCCCCCC)CCCCCCCC [Compound 56] |
| 5.457 | 83.5 | 0.206 | 68.67 | CCCCCCCCCCCCOCC(CN(CCCCCC(=O)OCC(CCCCCC)CCCCCCCC)CCN(CCO)C1CC1)OCCCCCC (stereo not drawn) [Compound 22] |
| 4.957 | 88.5 | 0.156 | 117.5 | CCCCCCCCCCCCOCC(CN(CCO)CCCCCC(=O)OCC(CCCCCC)CCCCCCCC)OC(=O)CC (stereo not drawn) [Compound 19] |
| 7.059 | 94.14 | 0.025 | 77.25 | CCCCCCCCCCCCCCCC(=O)OCC(CCCCN(CCO)C1CCCC1)COC(=O)CC(CCCCCC)CCCCCCCC (stereo not drawn) [Compound 99] |
| 6.351 | 93.32 | 0.049 | 78.45 | CCCCCCCCC(CCCCCCCC)COC(=O)CCOCC(CN(C)CCN(CCO)C1CC1)OCCC(=O)OCC(CCCCCCCC)CCCCCCCC (stereo not drawn) [Compound 70] |
| 6.069 | 89.79 | 0.014 | 90.06 | CCCCCCCCCCCCCCCCOCC(CN(CCCCCC(=O)OCCCCCCCCCC)CCN(CCO)C1CCC1)OCCCCCC (stereo not drawn) [Compound 53] |
| 6.727 | 94.62 | 0.077 | 76.45 | CCCCCCCCC(CCCCCCCC)COC(=O)CCOCC(CN(C)CCN(CCO)C1CCCC1)OCCC(=O)OCC(CCCCCCCC)CCCCCCCC (stereo not drawn) [Compound 71] |
| 5.875 | 93.5 | 0.139 | 62.11 | CCCCCCCCCCCCOCC(CN(CCCCCC(=O)OCC(CCCCCC)CCCCCCCC)CCN1CCCCC1)OC(=O)CCCCC (stereo not drawn) [Compound 15] |
| 6.608 | 92.11 | 0.111 | 63.89 | CCCCC/C=C\C/C=C\CCCCCCCC(=O)OCC(CCCCN(CCO)C1CCCCCC1)COC(=O)CC(CCCCCC)CCCCCCCC (stereo not drawn) [Compound 91] |
| 6.166 | 93.77 | 0.017 | 159.72 | CCCCCCCCC(CCCCCC)CC(=O)OCC(CCCCN(CC=C(C)C)CCN(CCO)C1CCC1)COC(=O)CC(CCCCCC)CCCCCCCC (stereo not drawn) [Compound 78] |
| 6.377 | 85.30 | 0.111 | 63.32 | CCCCCCCCCCC(=O)OCC(CCCCN(CCO)C1CCCCCCC1)COC(=O)CC(CCCCCC)CCCCCCCC (stereo not drawn) [Compound 93] |
| 6.666 | 91.24 | 0.055 | 64.54 | CCCCC/C=C\C/C=C\CCCCCCCC(=O)OCC(CCCCN(CCO)C1CCCCC1)COC(=O)CC(CCCCCC)CCCCCCCC (stereo not drawn) [Compound 100] |
| 5.96 | 90.7 | 0.145 | 67.7 | CCCCCCCCCCCCOCC(CN(CCCCCC(=O)OCC(CCCCCC)CCCCCCCC)CCN(CCO)C1CCC1)OC(C)=O (stereo not drawn) [Compound 20] |
| 6.616 | 94.69 | 0.088 | 76.26 | CCCCCCCCC(CCCCCCCC)COC(=O)CCOCC(CN(C)CCN(CCO)C1CCCCCC1)OCCC(=O)OCC(CCCCCCCC)CCCCCCCC (stereo not drawn) [Compound 73] |
| 6.035 | 93.17 | 0.046 | 65.31 | CCCCCCCCC(CCCCCC)COC(=O)CCOCC(CN(CCC)CCN(CCO)C1CCCCCC1)OCCC(=O)OCC(CCCCCC)CCCCCCCC (stereo not drawn) [Compound 106] |

Second part, the compound before the results:

| Structure (SMILES) | Apparant Pka [1] | Encapsulation Efficiency [2] [%] | polydispersity [3] | size (nm) [3] [nm] |
| --- | --- | --- | --- | --- |
| CCCCCCCCCCCCOCC(CN(C)CCN(CCO)C1CCC1)OCCCCCC (stereo not drawn) [Compound 38] | 6.971 | 76.2 | 0.194 | 97.62 |
| CCCCCCCCCCCCOCC(CN(CCCCCC(=O)OCC(CCCCCC)CCCCCCCC)CCN(CCO)C1CCCC1)OCCCCCCCC (stereo not drawn) [Compound 35] | 5.940 | 96.80 | 0.1 | 56.71 |
| CCCCCCCCCCCCOCC(O)CN(CCO)CCCCCC(=O)OCC(CCCCCC)CCCCCCCC (stereo not drawn) [Compound 13] | 7.089 | 94.2 | 0.128 | 61.3 |
| CCCCCCCCCCCCOCC(CN(CCO)C1CCC1)OCCCCCCCCCCCC (stereo not drawn) [Compound 1] | 5.902 | 96.3 | 0.12 | 72.4 |
| CCCCCCCCCCCC(=O)OCC(CN(CCCCCC(=O)OCC(CCCCCC)CCCCCC)CCN1CCC(O)C1)OC(=O)CCCCC (stereo not drawn) [Compound 62] | 7.062 | 94.1 | 0.075 | 58.44 |
| CCCCCCCCCCCCOCC(CN(CCCCCC(=O)OCC(CCCCCC)CCCCCCCC)CCN(CCO)C1CCCC1)OCCCCCC (stereo not drawn) [Compound 24] | 6.005 | 93.0 | 0.094 | 56.39 |
| CCCCCCCCCCCCOCC(CN(CCCCCC(=O)OCC(CCCCCC)CCCCCCCC)CCN(CCO)C1CC1)OCCCCCCCC (stereo not drawn) [Compound 34] | 5.482 | 89.60 | 0.103 | 58.33 |
| CCCCCCCCCCCCOCC(CN(CCCCCC(=O)OCC(CCCCCC)CCCCCCCC)CCN(CCO)C1CCCCC1)OCCCCCCCC (stereo not drawn) [Compound 36] | 5.774 | 94.20 | 0.078 | 59.91 |
| CCCCCCCCCCCCOCC(CN(CCCCCCCCCCCC)CCN(CCO)C1CCC1)OCCCCCCCCCCCC (stereo not drawn) [Compound 17] | 5.835 | 92.8 | 0.186 | 79.43 |
| CCCCCCCCCCCCOCC(CN(CCCCCC(=O)OCC(CCCCCC)CCCCCCCC)CCN(CCO)C1CCCCC1)OC(C)=O (stereo not drawn) [Compound 21] | 5.49 | 85.5 | 0.221 | 74.88 |
| CCCCCCCCCCCCOCC(CN(CCCCCC(=O)OCC(CCCCCC)CCCCCCCC)CCN(CCO)C1CCCCCC1)OCCCCCCCCCCCC (stereo not drawn) [Compound 31] | 5.704 | 80.1 | 0.127 | 51.35 |
| CCCCC/C=C\C/C=C\CCCCCCCC(=O)OCC(CCCCN(CCO)C1CCC1)COC(=O)CC(CCCCCC)CCCCCCCC (stereo not drawn) [Compound 89] | 6.926 | 92.56 | 0.04 | 69.36 |
| CCCCCCCCCCC(=O)OCC(CCCCN(CC=C(C)C)CCO)COC(=O)CC(CCCCCC)CCCCCCCC (stereo not drawn) [Compound 94] | 6.793 | 93.93 | 0.04 | 77.15 |
